Assays:
[1] = Phase 1b maximal use study: plasma pharmacokinetics of SNA-120; assay type: in vivo, human; conditions: any post-baseline timepoint; no detectable levels
Experimental: This is a multicenter, open-label, Phase 1b study designed to evaluate the PK with maximal use of 0.5% w/w SNA-120 ointment (see Table 1), as measured by circulating plasma levels of SNA-120 in men and women aged ≥18 years who have at least moderate (e.g., moderate to severe) pruritus associated with at least moderate (e.g., moderate to severe) psoriasis vulgaris (PV) covering at least 20% body surface area (BSA). SNA-120 was evaluated as a topical, non-steroidal ointment to treat itch (pruritus) associated with psoriasis. SNA-120 was designed to achieve high local drug concentration in the target tissue while minimizing systemic exposure for patients. SNA-120 directly targets the peripheral itch pathway in the psoriatic plaque.
Approximately 30 eligible subjects will receive 0.5% w/w SNA-120 ointment (2 mg/cm^2) proportional to approximately 35 mg active drug at each application for a subject with at least 20% BSA affected, administered twice daily over 4 weeks to the indicated areas in the Treatment Area. […]
Pharmacokinetics—Blood: Serial blood draws for PK analysis will be obtained approximately the same time of day for Study Days 1 and 29. […] On Days 1 and 29, blood draws will be collected after each nominal ECG extraction time point; the actual times of collection will be recorded in the eCRF. […]

[2] = Validation of HPLC methods (SNA-120 assay and related substances, benzyl alcohol); conditions: benzyl alcohol in ointment sample solutions stored at ambient conditions
Excerpt: An HPLC method was developed for the detection of assay and related substances of SNA-120 drug product and placebo. The following method validation parameters were challenged: specificity; linearity; accuracy; precision (system and repeatability); range; stability of test solutions; limit of detection and quantitation; system suitability.
An HPLC method was developed for the detection of Benzyl Alcohol in SNA-120 drug product and placebo. The following method validation parameters were challenged: specificity; linearity; accuracy; precision (system and repeatability); range; stability of test solutions; system suitability.

| Compound | Plasma levels of K252b [1] | Stability of test solutions: samples stable for up to [2] |
| --- | --- | --- |
| C[C@]12O[C@H](C[C@]1(O)C(=O)O)n1c3ccccc3c3c4c(c5c6ccccc6n2c5c31)CNC4=O [Lot K252b] | < 0.250 ng/mL |  |
| OCc1ccccc1 [benzyl alcohol] |  | ambient conditions. Samples are stable for up to 2 days |

Reference: US20190209472A1, “FORMULATIONS FOR DERMAL DELIVERY OF POLYMER CONJUGATES OF INDOLOCARBAZOLE COMPOUNDS WITH REDUCED EXPOSURE” (Sienna Biopharmaceuticals, Inc., priority 2017, published 2019)
